The data set can be described thus: recombinant UMI read abundance after kanamycin selection (control-corrected) (log10(CPM+1)); higher = more efficient recombination; extreme values may be limits of the assay; sequences stand for … in AGTGCAGAGAAAATCGGCCAGTTTTCTCTGCCTGCAGTCCGCATGCCGTGGGACCCCTTGGGTTCTAACCTGTTGCCTAGATTTATGCAGCGGACTGCCTTTCTCCCAAAGTGATAAACCGG…AGGTTGGTTTCACT; site = the 11-nt donor. Summed up: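 Under IPTG (0.07 mM) plus kanamycin, or without selection, Escherichia coli carrying a UMI-tagged donor and donor-binding-loop pair library and a target plasmid for the IS621 bridge recombinase were plated in two replicates. Recombinant UMIs were PCR-amplified across the donor–target junction and sequenced. Counts were converted to CPM, averaged over replicates, scaled by control-derived factors and reported as log10(CPM+1).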
With “ATCCAAGCATGGACCGGTTTTCCCGGTAATCCGTATTTGTG (site ATCCAAGCTCG)”, the “recombinant UMI read abundance (log10)” value came out at 1.13. The same measure for “ATCCAAGCATGGACCGGTTTTCCCGGTAATCCGTATTTGTG (site ATCCAAGCTCT)”: 0.581; for “ATCCCAGCATGGACCGGTTTTCCCGGTAATCCGTATTTGAG (site ATCCAAGCTCT)”: 0.00798. Consider “ATCCCAGCATGGACCGGTTTTCCCGGTAATCCGTATTTGAG (site ATCCCAGCTCT)”, for which the “recombinant UMI read abundance (log10)” value was determined as 0.952.

With “ATCCCAGCATGGACCGGTTTTCCCGGTAATCCGTATTTGAG (site ATCCGAGCTCT)”, the “recombinant UMI read abundance (log10)” value worked out at 0.00574.

With “ATCCCAGCATGGACCGGTTTTCCCGGTAATCCGTATTTGAG (site ATCCTAGCTCT)”, the “recombinant UMI read abundance (log10)” value was determined as 0. “ATCCCTACATGGACCGGTTTTCCCGGTAATCCGTATTTGAG (site ATCCCTACTCT)”: the “recombinant UMI read abundance (log10)” value amounted to 0.465.

On to “ATCCCTACATGGACCGGTTTTCCCGGTAATCCGTATTTGAG (site CTCCCTACTCT)”, for which the “recombinant UMI read abundance (log10)” value turned out to be 0.196. In the case of “ATCCCTACATGGACCGGTTTTCCCGGTAATCCGTATTTGAG (site GTCCCTACTCT)”, the “recombinant UMI read abundance (log10)” value turned out to be 0.0127.

For the sequence “ATCCCTACATGGACCGGTTTTCCCGGTAATCCGTATTTGAG (site TTCCCTACTCT)”, the “recombinant UMI read abundance (log10)” value came to 0.854. Turning to “ATCCGCTCATGGACCGGTTTTCCCGGTAATCCGTATTTGCG (site ATCCGCTCTCG)”, the “recombinant UMI read abundance (log10)” value was 1.19.

As for “ATCCTAGCATGGACCGGTTTTCCCGGTAATCCGTATTTGAG (site ATCCAAGCTCT)”, the “recombinant UMI read abundance (log10)” value worked out at 0.122. Turning to “ATCCTAGCATGGACCGGTTTTCCCGGTAATCCGTATTTGAG (site ATCCCAGCTCT)”, the “recombinant UMI read abundance (log10)” value was 0.0117. “ATCCTAGCATGGACCGGTTTTCCCGGTAATCCGTATTTGAG (site ATCCGAGCTCT)”: the “recombinant UMI read abundance (log10)” value is 0.0408. Turning to “ATCCTAGCATGGACCGGTTTTCCCGGTAATCCGTATTTGAG (site ATCCTAGCTCT)”, the “recombinant UMI read abundance (log10)” value is 0.651. Take “ATCCTAGCATGGACCGGTTTTCCCGGTAATCCGTATTTGTT (site AACCTAGCTAA)”: the “recombinant UMI read abundance (log10)” value was 0.00989.

On to “ATCCTAGCATGGACCGGTTTTCCCGGTAATCCGTATTTGTT (site ACCCTAGCTAA)”, for which the “recombinant UMI read abundance (log10)” value is 0.0137. Consider “ATCCTAGCATGGACCGGTTTTCCCGGTAATCCGTATTTGTT (site AGCCTAGCTAA)”, for which the “recombinant UMI read abundance (log10)” value is 0.0169. For the sequence “ATCCTAGCATGGACCGGTTTTCCCGGTAATCCGTATTTGTT (site ATCCTAGCTAA)”, the “recombinant UMI read abundance (log10)” value amounted to 0.0177.

For the sequence “ATCCTTGCATGGACCGGTTTTCCCGGTAATCCGTATTTGAT (site ATCCTTGCTAT)”, the “recombinant UMI read abundance (log10)” value turned out to be 2.19. With “ATCGACCCATGGACCGGTTTTCCCGGTAATCCGTATTTGGT (site ATCGACCCTAC)”, the “recombinant UMI read abundance (log10)” value is 0. Regarding “ATCGACCCATGGACCGGTTTTCCCGGTAATCCGTATTTGTG (site ATCGACCCTCA)”, the “recombinant UMI read abundance (log10)” value is 0.0241. For “ATCGCTGCATGGACCGGTTTTCCCGGTAATCCGTATTTGCC (site ATCGCTGCTGG)”, the “recombinant UMI read abundance (log10)” value is 2.27. The same measure for “ATCGGGTCATGGACCGGTTTTCCCGGTAATCCGTATTTGGT (site ATCGGGTCTAC)”: 1.85; for “ATCGTATCATGGACCGGTTTTCCCGGTAATCCGTATTTGTC (site ATCGTATCTGA)”: 3.35; for “ATCGTCCCATGGACCGGTTTTCCCGGTAATCCGTATTTGAT (site ATCGTCCCTAT)”: 0.563. On to “ATCTACCCATGGACCGGTTTTCCCGGTAATCCGTATTTGGC (site ATCTACCCTGC)”, for which the “recombinant UMI read abundance (log10)” value was 0.584.

With “ATCTAGACATGGACCGGTTTTCCCGGTAATCCGTATTTGGG (site AACTAGACTCC)”, the “recombinant UMI read abundance (log10)” value was determined as 0.0333. As to “ATCTAGACATGGACCGGTTTTCCCGGTAATCCGTATTTGGG (site ACCTAGACTCC)”, the “recombinant UMI read abundance (log10)” value stood at 0.00659. On to “ATCTAGACATGGACCGGTTTTCCCGGTAATCCGTATTTGGG (site AGCTAGACTCC)”, for which the “recombinant UMI read abundance (log10)” value was found to be 0.313. “ATCTAGACATGGACCGGTTTTCCCGGTAATCCGTATTTGGG (site ATCTAGACTCC)”: the “recombinant UMI read abundance (log10)” value was found to be 0.0102.

On to “ATCTATACATGGACCGGTTTTCCCGGTAATCCGTATTTGAT (site ATCTATACTAT)”, for which the “recombinant UMI read abundance (log10)” value came to 1.02. Regarding “ATCTATACATGGACCGGTTTTCCCGGTAATCCGTATTTGAT (site ATCTATACTCT)”, the “recombinant UMI read abundance (log10)” value was 0.147. On to “ATCTATACATGGACCGGTTTTCCCGGTAATCCGTATTTGAT (site ATCTATACTGT)”, for which the “recombinant UMI read abundance (log10)” value amounted to 0.

The record behind these values is the supplement of paper PMC11208160.
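Further: IS621 bridge recombinase in Escherichia coli cells against a fixed T5 target plasmid.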
